Measurements taken from patent publication US20060100431A1, “Biologically active compounds” (Amura Therapeutics Limited, priority 2002, published 2006).

Assays:
Format in all cases: biochemical
Wild-type cruzipain = Wild-type cruzipain (Trypanosoma cruzi, UniProt P25779); assay: Trypanosoma cruzi cruzipain peptidase activity assay (Ki); settings: read-out: Ki, inhibitors of cruzain and cruzipains
Method in brief: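 Native cruzipain from T. cruzi Dm28 epimastigotes, 2.5 nM, in 100 mM sodium phosphate pH 6.75 with 1 mM EDTA and 10 mM L-cysteine, 25 °C, DMSO <1%. Rates taken from continuous fluorogenic substrate read; Ki by regression assuming reversible pure-competitive inhibition.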

Bovine cathepsin S = target: T1, Bovine cathepsin S (Bos taurus, UniProt P25326); assay: Cathepsin S peptidase activity assay, bovine enzyme (Ki); settings: species of cathepsin S not given; read-out: Ki, inhibitors of cathepsin S
T1 construct: purchased CN Biosciences
Experimental: Unless otherwise stated, all general chemicals and biochemicals were purchased from either the Sigma Chemical Company, Poole, Dorset, U.K or from Fisher Scientific UK, Loughborough, Leicestershire, U.K. Absorbance assays were carried out in flat-bottomed 96-well plates (Spectra; Greiner Bio-One Ltd., Stonehouse, Gloucestershire, U.K.) using a SpectraMax PLUS384 plate reader (Molecular Devices, Crawley, U.K.). Fluorescence high throughput assays were carried out in either 384-well microtitre plates (Corning Costar 3705 plates, Fisher Scientific) or 96-well ‘U’ bottomed Microfluor W1 microtitre plates (Thermo Labsystems, Ashford, Middlesex, U.K.). Fluorescence assays were monitored using a SpectraMax Gemini fluorescence plate reader (Molecular Devices). For substrates employing either a 7-amino-4-methylcoumarin (AMC) or a 7-amino-4-trifluoromethylcoumarin (AFC) fluorophore, assays were monitored at an excitation wavelength of 365 nm and an emission wavelength of 450 nm and the fluorescence plate reader calibrated with AMC. For substrates employing a 3-amino-benzoyl (Abz) fluorophore, assays were monitored at an excitation wavelength of 310 nm and an emission wavelength of 445 nm; the fluorescence plate reader calibrated with 3-amino-benzamide (Fluka). Unless otherwise indicated, all the peptidase substrates were purchased from Bachem UK, St Helens, Merseyside, UK. Substrates utilizing fluorescence resonance energy transfer methodology (i.e. FRET-based substrates) were synthesized at Incenta Limited using published methods (Atherton & Sheppard, Solid Phase Peptide Synthesis, IRL Press, Oxford, U.K, 1989) and employed Abz (2-aminobenzoyl) as the fluorescence donor and 3-nitro-tyrosine [Tyr(NO2)] as the fluorescence quencher (Meldal, M. and Breddam, K., Anal. Biochem, 195, 141-147, 1991). Hydroxyethylpiperazine ethanesulfonate (HEPES), tris-hydroxylmethyl aminomethane (tris) base, bis-tris-propane and all the biological detergents (e.g. CHAPS, zwittergents, etc.) were purchased from CN Biosciences UK, Beeston, Nottinghamshire, U.K. Glycerol was purchased from Amersham Pharmacia Biotech, Little Chalfont, Buckinghamshire, U.K. Stock solutions of substrate or inhibitor were made up to 10 mM in 100% dimethylsulfoxide (DMSO) (Rathburns, Glasgow, U.K.) and diluted as appropriately required. In all cases the DMSO concentration in the assays was maintained at less than 1% (vol./vol.).
Assay protocols were based on literature precedent (Table 4; Barrett, A. J., Rawlings, N. D. and Woessner, J. F., 1998, Handbook of Proteolytic Enzymes, Academic Press, London and references therein) and modified as required to suit local assay protocols. Enzyme was added as required to initiate the reaction and the activity, as judged by the change in fluorescence upon conversion of substrate to product, was monitored over time. All assays were carried out at 25±1° C.
Bovine cathepsin S, human cathepsin L, human cathepsin H and human cathepsin B were obtained from CN Biosciences. Recombinant human cathepsin S, human cathepsin K and human cathepsin X were obtained from Dr. Boris Turk (Josef Stefan Institute, Ljubljana, Slovenia). Unless otherwise stated, all peptidase activity assays were carried out in 10 mM bis-tris-propane (BTP), pH 6.5 containing 1 mM EDTA, 5 mM 2-mercaptoethanol and 1 mM CaCl2. Human cathepsin H activity assays were carried out in 10 mM BTP pH 6.5, 142 mM NaCl2, 1 mM CaCl2, 1 mM EDTA, 1 mM DTT, 0.035 mM Zwittergent 3-16. Human cathepsin K assays were carried out in 100 mM sodium acetate; pH 5.5 containing 20 mM L-cysteine and 1 mM EDTA (Bossard, M. J., et. al., J. Biol. Chem., 21, 12517-12524, 1996). Human cathepsin X assays were carried out in 100 mM sodium acetate; pH 5.5 containing 20 mM L-cysteine; 0.05% (w/v) Brij 35 and 1 mM EDTA (Santamaria, I., et. al., J. Biol. Chem., 273, 16816-16823, 1998; Klemencic, J, et al., Eur. J. Biochem., 267, 5404-5412, 2000).

human cathepsin L = target: T2, human cathepsin L (Homo sapiens, UniProt P07711); assay: Cathepsin L peptidase activity assay (Ki); settings: read-out: Ki, inhibitors of cathepsin L
T2 construct: purchased CN Biosciences
Method in brief: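 Human cathepsin L at 1 nM with Ac-Phe-Arg-AMC at its KM^app (~20 μM) in 10 mM bis-tris-propane pH 6.5, 1 mM EDTA, 5 mM 2-mercaptoethanol, 1 mM CaCl2, DMSO <1%, 25±1° C. Reaction enzyme-initiated; AMC fluorescence (ex 365/em 450 nm) monitored over time.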

CPB2.8ΔCTE = target: T3, CPB2.8ΔCTE (Leishmania mexicana, UniProt P36400); assay: Leishmania mexicana cysteine protease B (CPB) peptidase activity assay (Ki); settings: Ki, inhibitors of Leismania mexicana CPB protease
T3 construct: Wild-type recombinant CPB without the C-terminal extention (i.e. CPB2.8ΔCTE); Dr. Jeremy Mottram (Wellcome Centre for Molecular Parasitology, University of Glasgow)
Method in brief: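 Recombinant CPB2.8ΔCTE (0.25 nM) was assayed in 100 mM sodium acetate pH 5.5 with 1 mM EDTA, 200 mM NaCl and 10 mM DTT at 25 °C, DMSO <1%, enzyme added to start. Rates were taken from continuous fluorescence slopes; apparent Ki was fitted assuming reversible, pure-competitive inhibition.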

Measured: Ki

Chain of Wild-type cruzipain (P25779 whole entry): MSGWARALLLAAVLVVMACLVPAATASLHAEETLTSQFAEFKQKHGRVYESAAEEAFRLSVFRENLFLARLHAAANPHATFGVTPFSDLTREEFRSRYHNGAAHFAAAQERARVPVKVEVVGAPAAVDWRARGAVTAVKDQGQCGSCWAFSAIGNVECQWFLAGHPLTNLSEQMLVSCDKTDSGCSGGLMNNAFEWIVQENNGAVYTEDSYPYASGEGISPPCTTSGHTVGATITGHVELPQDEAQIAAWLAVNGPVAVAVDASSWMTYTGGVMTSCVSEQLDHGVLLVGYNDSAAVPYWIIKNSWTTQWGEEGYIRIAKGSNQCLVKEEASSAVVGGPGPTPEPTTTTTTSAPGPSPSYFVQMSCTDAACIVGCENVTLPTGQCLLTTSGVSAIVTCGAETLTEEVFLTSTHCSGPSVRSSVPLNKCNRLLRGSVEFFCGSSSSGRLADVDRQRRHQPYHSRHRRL
T3 sequence (P36400 126-343, stated change not applied): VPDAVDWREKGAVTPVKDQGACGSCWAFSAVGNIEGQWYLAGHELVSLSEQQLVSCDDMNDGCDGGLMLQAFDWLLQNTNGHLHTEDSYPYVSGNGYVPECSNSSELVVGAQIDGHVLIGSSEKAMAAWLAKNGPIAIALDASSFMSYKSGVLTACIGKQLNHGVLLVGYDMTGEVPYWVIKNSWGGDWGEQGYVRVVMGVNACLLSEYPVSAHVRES
T1 sequence (P25326 115-331): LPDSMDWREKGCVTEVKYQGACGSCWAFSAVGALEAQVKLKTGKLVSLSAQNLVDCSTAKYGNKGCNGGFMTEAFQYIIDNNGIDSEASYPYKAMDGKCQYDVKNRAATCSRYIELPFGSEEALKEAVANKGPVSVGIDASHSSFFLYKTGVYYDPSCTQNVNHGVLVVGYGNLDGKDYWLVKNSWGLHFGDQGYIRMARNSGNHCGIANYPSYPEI
T2 sequence (P07711 114-333): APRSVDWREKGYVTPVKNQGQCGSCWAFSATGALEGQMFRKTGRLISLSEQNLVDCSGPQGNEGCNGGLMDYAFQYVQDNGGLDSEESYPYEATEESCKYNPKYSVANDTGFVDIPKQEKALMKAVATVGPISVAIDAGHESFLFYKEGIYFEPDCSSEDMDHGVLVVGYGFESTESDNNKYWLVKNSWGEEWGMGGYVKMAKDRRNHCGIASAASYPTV

CC[C@H](C)[C@H](NC(=O)OCc1ccccc1)C(=O)N1CC(=O)[C@@H]2[C@H]1CCN2C(=O)[C@H](CC(C)C)NC(=O)c1ccc(N(C)C)cc1 [Example 161, (3 aS,6aR)-((1S,2S)-1-{4-[(2S)-2-(4-Dimethylamino-benzoylamino)-4-methyl-pentanoyl]-3-oxo-hexahydro-pyrrolo[3,2-b]pyrrole-1-carbonyl}-2-methyl-butyl)-carbamic acid benzyl ester]
< 5 µM: all assays above

CC(C)C[C@H](NC(=O)c1ccc(N(C)C)cc1)C(=O)N1CC[C@@H]2[C@H]1C(=O)CN2C(=O)c1ccsc1 [Example 164, (3aR,6aS)-4-Dimethylamino-N-{(1S)-3-methyl-1-[6-oxo-4-(thiophene-3-carbonyl)-hexahydro-pyrrolo[3,2-b]pyrrole-1-carbonyl]-butyl}-benzamide]
< 5 µM: all assays above

Cc1ccc(C(=O)N[C@@H](CC(C)C)C(=O)N2CC[C@@H]3[C@H]2C(=O)CN3C(=O)c2ccccc2)cc1 [Example 170]
< 5 µM: all assays above

CCc1ccc(C(=O)N[C@@H](CC(C)C)C(=O)N2CC[C@@H]3[C@H]2C(=O)CN3C(=O)c2ccccc2)cc1 [Example 171, (3aR,6aS)-N-[(1S)-1-(4-Benzoyl-6-oxo-hexahydro-pyrrolo[3,2-b]pyrrole-1-carbonyl)-3-methyl-butyl]-4-ethyl-benzamide]
< 5 µM: all assays above

CC(C)C[C@H](NC(=O)c1ccc(C(C)C)cc1)C(=O)N1CC[C@@H]2[C@H]1C(=O)CN2C(=O)c1ccccc1 [Example 172, (3aR,6aS)-N-[(1S)-1-(4-Benzoyl-6-oxo-hexahydro-pyrrolo[3,2-b]pyrrole-1-carbonyl)-3-methyl-butyl]-4-isopropyl-benzamide]
< 5 µM: all assays above

CC(C)C[C@H](NC(=O)c1ccccc1)C(=O)N1CC[C@@H]2[C@H]1C(=O)CN2C(=O)c1ccccc1 [Example 174, (3aR,6aS)-N-[(1S)-1-(4-Benzoyl-6-oxo-hexahydro-pyrrolo[3,2-b]pyrrole-1-carbonyl)-3-methyl-butyl]-benzamide]
< 5 µM: all assays above

CC(C)C[C@H](NC(=O)c1cccc(CN)c1)C(=O)N1CC[C@@H]2[C@H]1C(=O)CN2C(=O)c1ccccc1S(C)(=O)=O [Example 185, (3aR,6aS)-3-Aminomethyl-N-{(1S)-1-[4-(2-methanesulfonyl-benzoyl)-6-oxo-hexahydro-pyrrolo[3,2-b]pyrrole-1-carbonyl]-3-methyl-butyl}-benzamide]
< 5 µM: all assays above

CC(C)C[C@H](NC(=O)c1ccc(N2CCCC2)cc1)C(=O)N1CC[C@@H]2[C@H]1C(=O)CN2C(=O)c1ccccc1 [Example 193, (3aR,6aS)-N-[(1S)-1-(4-Benzoyl-6-oxo-hexahydro-pyrrolo[3,2-b]pyrrole-1-carbonyl)-3-methyl-butyl]-4-pyrrolidin-1-yl-benzamide]
< 5 µM: all assays above

CCC[C@H](NC(C)=O)C(=O)N1CC(=O)[C@@H]2[C@H]1CCN2C(=O)[C@H](CC(C)C)NC(=O)c1ccc(N(C)C)cc1 [Example 245, (3aR,6aS)-N-{(1S)-1-[4-((2S)-2-Acetylamino-pentanoyl)-6-oxo-hexahydro-pyrrolo[3,2-b]pyrrole-1-carbonyl]-3-methyl-butyl}-4-dimethylamino-benzamide]
< 5 µM: all assays above
